In patent US20250163104A1, “MACROCYCLIC IMMUNOMODULATORS” (priority 2021, published 2025):
Where a SMILES comes first, the peptide text is derived from it. Bridges are numbered along the chain shown (N, C = ends). [ ]: non-standard residue; d: D form. The star is where a group is joined. Phe(4-COOH) = N[C@@H](Cc1ccc(C(=O)O)cc1)C(=O)O; Bip = N[C@@H](Cc1ccc(-c2ccccc2)cc1)C(=O)O; Phe(3-OMe) = COc1cccc(C[C@H](N)C(=O)O)c1; Phe(3-Me) = Cc1cccc(C[C@H](N)C(=O)O)c1; 4Pal = N[C@@H](Cc1ccncc1)C(=O)O; Cit = NC(=O)NCCC[C@H](N)C(=O)O; Carboxymethyl = O=C(O)C*; Nle = CCCC[C@H](N)C(=O)O; Orn = NCCC[C@H](N)C(=O)O; Dab = NCC[C@H](N)C(=O)O

Each compound was assayed against T1, human PD-1 / PD-L1-Ig binding on Jurkat cell line over-expressing human PD-1 (Jurkat-PD-1) (Homo sapiens, UniProt Q15116) (assay: Jurkat-PD-1 Cell Binding High-Content Screening Assay (CBA)). Conditions: Jurkat HPD1_PDL1 IC50, Jurkat-PD-1 cells, PE-labeled PD-L1-Ig 20 nM final.
T1 construct: expressed in transfected cells; host or cells: Jurkat
T1 sequence (Q15116 25-288): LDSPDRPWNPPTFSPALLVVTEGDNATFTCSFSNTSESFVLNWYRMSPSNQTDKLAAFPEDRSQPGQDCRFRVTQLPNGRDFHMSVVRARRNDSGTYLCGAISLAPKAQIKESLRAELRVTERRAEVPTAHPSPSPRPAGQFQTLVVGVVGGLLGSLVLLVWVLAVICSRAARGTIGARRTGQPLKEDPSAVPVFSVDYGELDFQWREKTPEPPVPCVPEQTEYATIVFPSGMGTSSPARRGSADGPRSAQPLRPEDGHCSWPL
Format: cell-based
How it was run: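 Jurkat cells over-expressing human PD-1, in DMEM/10% FCS, pre-incubated with compound 2 h at 37° C. PE-labeled human PD-L1-Ig (20 nM final) added for 1 h; cells fixed in paraformaldehyde with Hoechst 33342 nuclear stain, washed, and bound fluorescence quantified by high-content imaging.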

In order of rising IC50:
1. CC[C@H](C)[C@@H]1NC(=O)[C@H](Cc2ccc(-c3ccccc3)cc2)NC(=O)[C@H](C(C)C)NC(=O)[C@H](Cc2cccc(C)c2)NC(=O)[C@H](CC(=O)O)NC(=O)[C@H](Cc2ccc(OCC(=O)O)cc2)NC(=O)[C@H](Cc2ccncc2)NC(=O)CSC[C@@H](C(=O)N[C@@H](C)C(N)=O)NC(=O)[C@H]([C@@H](C)O)NC(=O)[C@H](C(C)C)NC(=O)[C@H](CC(C)C)NC(=O)[C@H](CCN)NC(=O)[C@@H](CC(C)C)NC(=O)[C@H](CCCN)NC1=O [Compound 1186]  5.8 nM
2. CC[C@H](C)[C@@H]1NC(=O)[C@H](Cc2ccc(-c3ccccc3)cc2)NC(=O)[C@H](C(C)C)NC(=O)[C@H](Cc2cccc(OC)c2)NC(=O)[C@H](CC(=O)O)NC(=O)[C@H](Cc2ccc(OCC(=O)O)cc2)NC(=O)[C@H](Cc2ccncc2)NC(=O)CSC[C@@H](C(=O)N[C@@H](C)C(N)=O)NC(=O)[C@H]([C@@H](C)O)NC(=O)[C@H](C(C)C)NC(=O)[C@H](CC(C)C)NC(=O)[C@H](CCN)NC(=O)[C@@H](CC(C)C)NC(=O)[C@H](CCCN)NC1=O [Compound 1187]  10.7 nM

Same assay, conditions: Jurkat-PD-1 cells, PE-labeled PD-L1-Ig 20 nM final; read-out: Jurkat HPD1_PDL1 IC50

In order of rising IC50:
1. Cc1cccc(C[C@@H]2NC(=O)[C@H](CC(=O)O)NC(=O)[C@H](Cc3ccc(C(=O)O)cc3)NC(=O)[C@H](Cc3ccncc3)NC(=O)CSC[C@@H](C(=O)N[C@@H](C)C(N)=O)NC(=O)[C@H]([C@@H](C)O)NC(=O)[C@H](C(C)C)NC(=O)[C@H](CC3CCCCC3)NC(=O)[C@H](CCN)NC(=O)[C@@H](CC(C)C)NC(=O)[C@H](CCCN)NC(=O)[C@H](CCCNC(N)=O)NC(=O)[C@H](Cc3ccc(-c4ccccc4)cc3)NC(=O)[C@H](C(C)C)NC2=O)c1 [Compound 1190]  4.5 nM
2. COc1cccc(C[C@@H]2NC(=O)[C@H](CC(=O)O)NC(=O)[C@H](Cc3ccc(C(=O)O)cc3)NC(=O)[C@H](Cc3ccncc3)NC(=O)CSC[C@@H](C(=O)N[C@@H](C)C(N)=O)NC(=O)[C@H]([C@@H](C)O)NC(=O)[C@H](C(C)C)NC(=O)[C@H](CC(C)C)NC(=O)[C@H](CCN)NC(=O)[C@@H](CC(C)C)NC(=O)[C@H](CCCN)NC(=O)[C@H](C(C)C)NC(=O)[C@H](Cc3ccc(-c4ccccc4)cc3)NC(=O)[C@H](C(C)C)NC2=O)c1 [Compound 1183] ({CH2CO}-[4Pal][Phe(4-COOH)]D[Phe(3-OMe)]V[Bip]V[Orn][dL][Dab]LVTCA-NH2; thioether N-14)  6.1 nM
3. Cc1cccc(C[C@@H]2NC(=O)[C@H](CC(=O)O)NC(=O)[C@H](Cc3ccc(OCC(=O)O)cc3)NC(=O)[C@H](Cc3ccncc3)NC(=O)CSC[C@@H](C(=O)N[C@@H](C)C(N)=O)NC(=O)[C@H]([C@@H](C)O)NC(=O)[C@H](C(C)C)NC(=O)[C@H](CC(C)C)NC(=O)[C@H](CCN)NC(=O)[C@@H](CC(C)C)NC(=O)[C@H](CCCN)NC(=O)[C@H](CCCNC(N)=O)NC(=O)[C@H](Cc3ccc(-c4ccccc4)cc3)NC(=O)[C@H](C(C)C)NC2=O)c1 [Compound 1184] ({CH2CO}-[4Pal]Y(Carboxymethyl)D[Phe(3-Me)]V[Bip][Cit][Orn][dL][Dab]LVTCA-NH2; thioether N-14)  6.2 nM
4. COc1cccc(C[C@@H]2NC(=O)[C@H](CC(=O)O)NC(=O)[C@H](Cc3ccc(OCC(=O)O)cc3)NC(=O)[C@H](Cc3ccncc3)NC(=O)CSC[C@@H](C(=O)N[C@@H](C)C(N)=O)NC(=O)[C@H]([C@@H](C)O)NC(=O)[C@H](C(C)C)NC(=O)[C@H](CC(C)C)NC(=O)[C@H](CCN)NC(=O)[C@@H](CC(C)C)NC(=O)[C@H](CCCN)NC(=O)[C@H](CCCNC(N)=O)NC(=O)[C@H](Cc3ccc(-c4ccccc4)cc3)NC(=O)[C@H](C(C)C)NC2=O)c1 [Compound 1185] ({CH2CO}-[4Pal]Y(Carboxymethyl)D[Phe(3-OMe)]V[Bip][Cit][Orn][dL][Dab]LVTCA-NH2; thioether N-14)  7.4 nM
5. COc1cccc(C[C@@H]2NC(=O)[C@H](CC(=O)O)NC(=O)[C@H](Cc3ccc(OCC(=O)O)cc3)NC(=O)[C@H](Cc3ccncc3)NC(=O)CSC[C@@H](C(=O)N[C@@H](C)C(N)=O)NC(=O)[C@H]([C@@H](C)O)NC(=O)[C@H](C(C)C)NC(=O)[C@H](CC(C)C)NC(=O)[C@H](CCN)NC(=O)[C@@H](CC(C)C)NC(=O)[C@H](CCCN)NC(=O)[C@H](C(C)C)NC(=O)[C@H](Cc3ccc(-c4ccccc4)cc3)NC(=O)[C@H](C(C)C)NC2=O)c1 [Compound 1188] ({CH2CO}-[4Pal]Y(Carboxymethyl)D[Phe(3-OMe)]V[Bip]V[Orn][dL][Dab]LVTCA-NH2; thioether N-14)  7.9 nM
6. Cc1cccc(C[C@@H]2NC(=O)[C@H](CC(=O)O)NC(=O)[C@H](Cc3ccc(C(=O)O)cc3)NC(=O)[C@H](Cc3ccncc3)NC(=O)CSC[C@@H](C(=O)N[C@@H](C)C(N)=O)NC(=O)[C@H]([C@@H](C)O)NC(=O)[C@H](C(C)C)NC(=O)[C@H](CC(C)C)NC(=O)[C@H](CCN)NC(=O)[C@@H](CC(C)C)NC(=O)[C@H](CCCN)NC(=O)[C@H](C(C)C)NC(=O)[C@H](Cc3ccc(-c4ccccc4)cc3)NC(=O)[C@H](C(C)C)NC2=O)c1 [Compound 1182] ({CH2CO}-[4Pal][Phe(4-COOH)]D[Phe(3-Me)]V[Bip]V[Orn][dL][Dab]LVTCA-NH2; thioether N-14)  8.2 nM
7. CC[C@H](C)[C@@H]1NC(=O)[C@H](Cc2ccc(-c3ccccc3)cc2)NC(=O)[C@H](C(C)C)NC(=O)[C@H](Cc2cccc(C)c2)NC(=O)[C@H](CC(=O)O)NC(=O)[C@H](Cc2ccc(C(=O)O)cc2)NC(=O)[C@H](Cc2ccncc2)NC(=O)CSC[C@@H](C(=O)N[C@@H](C)C(N)=O)NC(=O)[C@H]([C@@H](C)O)NC(=O)[C@H](C(C)C)NC(=O)[C@H](CC(C)C)NC(=O)[C@H](CCN)NC(=O)[C@@H](CC(C)C)NC(=O)[C@H](CCCN)NC1=O [Compound 1180]  8.9 nM
8. CCCC[C@@H]1NC(=O)[C@H](CCN)NC(=O)[C@@H](CC(C)C)NC(=O)[C@H](CCCN)NC(=O)[C@H]([C@@H](C)CC)NC(=O)[C@H](Cc2ccc(-c3ccccc3)cc2)NC(=O)[C@H](C(C)C)NC(=O)[C@H](Cc2cccc(C)c2)NC(=O)[C@H](CC(=O)O)NC(=O)[C@H](Cc2ccc(C(=O)O)cc2)NC(=O)[C@H](Cc2ccncc2)NC(=O)CSC[C@@H](C(=O)N[C@@H](C)C(N)=O)NC(=O)[C@H]([C@@H](C)O)NC(=O)[C@H](C(C)C)NC1=O [Compound 1191]  10 nM
9. CC[C@H](C)[C@@H]1NC(=O)[C@H](Cc2ccc(-c3ccccc3)cc2)NC(=O)[C@H](C(C)C)NC(=O)[C@H](Cc2cccc(OC)c2)NC(=O)[C@H](CC(=O)O)NC(=O)[C@H](Cc2ccc(C(=O)O)cc2)NC(=O)[C@H](Cc2ccncc2)NC(=O)CSC[C@@H](C(=O)N[C@@H](C)C(N)=O)NC(=O)[C@H]([C@@H](C)O)NC(=O)[C@H](C(C)C)NC(=O)[C@H](CC(C)C)NC(=O)[C@H](CCN)NC(=O)[C@@H](CC(C)C)NC(=O)[C@H](CCCN)NC1=O [Compound 1181]  12 nM
10. CCCC[C@@H]1NC(=O)[C@H](CCN)NC(=O)[C@@H](CC(C)C)NC(=O)[C@H](CCCN)NC(=O)[C@H](CCCNC(N)=O)NC(=O)[C@H](Cc2ccc(-c3ccccc3)cc2)NC(=O)[C@H](C(C)C)NC(=O)[C@H](Cc2cccc(C)c2)NC(=O)[C@H](CC(=O)O)NC(=O)[C@H](Cc2ccc(C(=O)O)cc2)NC(=O)[C@H](Cc2ccncc2)NC(=O)CSC[C@@H](C(=O)N[C@@H](C)C(N)=O)NC(=O)[C@H]([C@@H](C)O)NC(=O)[C@H](C(C)C)NC1=O [Compound 1189] ({CH2CO}-[4Pal][Phe(4-COOH)]D[Phe(3-Me)]V[Bip][Cit][Orn][dL][Dab][Nle]VTCA-NH2; thioether N-14)  17.7 nM
